Assay results reported in article PMC11189516, “Structure-guided conversion from an anaplastic lymphoma kinase inhibitor into Plasmodium lysyl-tRNA synthetase selective inhibitors” (Communications Biology, 2024).
Where “and” joins values, the source holds several entries; their conditions need not be identical. Equal values may be shown once. Read-outs that look alike come from different tables or passages of the source.

Legend:
PfLysRS [1] = target: T1, PfLysRS (Plasmodium falciparum, UniProt Q8IDJ8); assay: Thermal shift assay; assay type: binding; conditions: for ΔTm of PfLysRS / ΔTm at 200 µM: in the presence of L-lysine
T1 construct: PfLysRS (77–583) was constructed in the vector pET20b, with a C-terminal 6×His tag; 6xHis (C); made in house; host or cells: E. coli BL21 (DE3)
Experimental: PfLysRS protein was prepared at 10 μM concentration in a buffer containing 20 mM Tris pH 8.0, 200 mM NaCl, 500 μM L-lysine, and 200 μM Compound. Aliquots (18 µL) were added to a 96-well PCR plate and incubated at ambient temperature for 10 min. SYPRO Orange dye (Sigma) was diluted in the assay buffer containing 20 mM Tris pH 8.0 and 200 mM NaCl to a 40× concentration, and 2 µL of the 40× dye solution was added to the PCR plate to bring the final assay volume to 20 µL. After complete mixing, the final solutions were heated from 25 to 90 °C at a rate of 0.015 °C per sec, and fluorescence signals were monitored by QuantStudio 3 (Applied Biosystems by Thermo Fisher Scientific).

[2] = test system: erythrocytic-stage P. falciparum 3D7 parasites; assay: In vitro Plasmodium growth assay; assay type: cell-based, Plasmodium falciparum; conditions: for HillSlope (best-fit value): Plasmodium falciparum 3D7; for LogIC50 (best-fit value): Plasmodium falciparum 3D7, log of nM; for IC50: Plasmodium falciparum 3D7, source data, read-out: IC50 (best-fit value); for EC50: Plasmodium falciparum, 3D7, 72 h
Experimental: Parasites were cultured in human O+ erythrocytes according to standard procedures. To prepare the >80% ring stage parasites, asynchronous cultures of parasites were pretreated with 5% sorbitol, and P. falciparum strain 3D7 at the mid-ring stage (6–10 h post-invasion) was used to test antimalarial effects in 96-well plates. Parasites were incubated in a 96-well plate with compound containing 1% parasitemia and, 2% hematocrit for a total volume of 200 μL. […] A relevant DMSO concentration was used as a negative control, and cultured erythrocytes without Plasmodium served as a positive control. The parasites were allowed to grow for 72 h at 37 °C with 5% CO2, 5% O2, and 90% N2. After 72 h, 100 μL of lysis buffer (0.12 mg·mL^−1 Saponin, 0.12% Triton X-100, 30 mM Tris-HCl pH 8.0, and 7.5 mM EDTA) with 5× SYBR Green I (Invitrogen; supplied in 10000× concentration) was added to each well of the plate. The plates were then incubated for 2 h in the dark prior to reading the fluorescence signal at 485 nm excitation and 535 nm emission. The percentage of inhibition was calculated by (NC-fluorescence) × 100/(NC-PC).

ALK = target: T2, ALK (Homo sapiens, UniProt Q9UM73); assay: ATP hydrolysis assay (Kinase-Glo) on ALK; assay type: biochemical
T2 construct: The plasmid pCDNA3.1_8×His-tev-ALK (kinase domain, 1068–1410) was constructed; 8xHis (N); TEV site (N); made in house; host or cells: Expi293 cells (transient transfection)
Experimental: (§1) The ATP hydrolysis assays were based on Kinase-Glo luminescent Kit (Promega). The experiment was carried out in Corning 384-well white flat bottom microplates. The buffer in the reaction contains 25 mM Hepes pH 7.4, 140 mM NaCl, 40 mM MgCl2, 30 mM KCl, 1 mM TCEP, 0.1 mg·mL^−1 BSA, and 0.004% Tween-20. The compounds were diluted to different concentrations with a 5-fold gradient.
For ALK assays, DMSO was added into negative control wells. 100 nM ALK in 2.5 μL Hepes buffer was mixed with compounds and incubated for 10 min. Then 5 μL substrate (2 μM ATP) was added to start the reaction at 37 °C and incubated for 6 h.
(§2) When the reaction reaches the planned time, 10 μL diluted Kinase-Glo reagent (1/50 diluted with a buffer containing 50 mM Tris pH 7.5 and 5% glycerol) was added and incubated for 15 min. Luminescence was measured on the Magellan plate reader (Tecan) and nonlinear regression was performed with Prism (GraphPad).

PfLysRS [3] = target: T1, PfLysRS; assay: ATP hydrolysis assay (Kinase-Glo) on PfLysRS; assay type: biochemical
Experimental: as §1
(§3) For LysRS assays, DMSO was added into negative control wells and L-lysine was removed in positive control wells. 100 nM LysRS in 2.5 μL Hepes buffer was mixed with compounds and incubated for 10 min. Then 5 μL substrate mixture (2 μM ATP, 10 μM L-lysine and 31 nM pyrophosphatase) was added to start the reaction at 37 °C and incubated for 6 h.
as §2

HsLysRS = target: T3, HsLysRS (Homo sapiens, UniProt Q15046); assay: ATP hydrolysis assay (Kinase-Glo) on HsLysRS; assay type: biochemical
T3 construct: HsLysRS (70–581) was constructed in the vector pET20b with a C-terminal 6×His tag; 6xHis (C); made in house; host or cells: E. coli (pET20b; 'purified similarly' to PfLysRS, which was expressed in BL21 (DE3))
Experimental: as §1, §3, §2

[4] = P. falciparum 3D7, Log(Concentration)/nM 3.193, single repeats
[5] = P. falciparum 3D7, Log(Concentration)/nM 3.496, single repeats
[6] = P. falciparum 3D7, Log(Concentration)/nM 3.796, single repeats
[7] = P. falciparum 3D7, Log(Concentration)/nM 4.097, single repeats
[8] = P. falciparum 3D7, Log(Concentration)/nM 4.398, single repeats
[9] = P. falciparum 3D7, Log(Concentration)/nM 4.699, single repeats
[10] = P. falciparum 3D7, Log(Concentration)/nM 5.000, single repeats
[11] = +Lysine, sheet Figure 6B, in °C (unit assumed)

T3 sequence (Q15046 70-581): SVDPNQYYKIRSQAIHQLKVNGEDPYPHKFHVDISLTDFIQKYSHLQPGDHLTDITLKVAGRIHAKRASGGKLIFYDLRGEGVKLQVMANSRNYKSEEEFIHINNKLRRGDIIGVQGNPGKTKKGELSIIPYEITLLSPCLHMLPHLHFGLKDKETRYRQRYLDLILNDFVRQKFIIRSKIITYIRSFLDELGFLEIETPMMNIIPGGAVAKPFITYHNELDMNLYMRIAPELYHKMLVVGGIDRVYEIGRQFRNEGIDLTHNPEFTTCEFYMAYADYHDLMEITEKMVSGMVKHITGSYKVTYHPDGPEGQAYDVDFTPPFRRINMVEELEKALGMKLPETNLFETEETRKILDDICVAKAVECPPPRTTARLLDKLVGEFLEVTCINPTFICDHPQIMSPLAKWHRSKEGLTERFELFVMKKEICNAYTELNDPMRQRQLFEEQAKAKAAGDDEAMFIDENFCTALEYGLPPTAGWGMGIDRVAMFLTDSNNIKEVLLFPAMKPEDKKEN
T2 sequence (Q9UM73 1068-1410): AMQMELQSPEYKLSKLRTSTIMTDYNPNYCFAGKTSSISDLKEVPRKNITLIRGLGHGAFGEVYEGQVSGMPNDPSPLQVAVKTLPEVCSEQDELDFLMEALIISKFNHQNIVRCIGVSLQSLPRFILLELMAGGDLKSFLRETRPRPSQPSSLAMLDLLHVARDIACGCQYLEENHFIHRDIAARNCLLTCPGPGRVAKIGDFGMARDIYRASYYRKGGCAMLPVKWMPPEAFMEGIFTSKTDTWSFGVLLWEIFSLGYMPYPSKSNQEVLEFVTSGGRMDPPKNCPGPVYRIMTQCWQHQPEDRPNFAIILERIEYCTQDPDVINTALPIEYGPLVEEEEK
T1 sequence (Q8IDJ8 entry or part of it): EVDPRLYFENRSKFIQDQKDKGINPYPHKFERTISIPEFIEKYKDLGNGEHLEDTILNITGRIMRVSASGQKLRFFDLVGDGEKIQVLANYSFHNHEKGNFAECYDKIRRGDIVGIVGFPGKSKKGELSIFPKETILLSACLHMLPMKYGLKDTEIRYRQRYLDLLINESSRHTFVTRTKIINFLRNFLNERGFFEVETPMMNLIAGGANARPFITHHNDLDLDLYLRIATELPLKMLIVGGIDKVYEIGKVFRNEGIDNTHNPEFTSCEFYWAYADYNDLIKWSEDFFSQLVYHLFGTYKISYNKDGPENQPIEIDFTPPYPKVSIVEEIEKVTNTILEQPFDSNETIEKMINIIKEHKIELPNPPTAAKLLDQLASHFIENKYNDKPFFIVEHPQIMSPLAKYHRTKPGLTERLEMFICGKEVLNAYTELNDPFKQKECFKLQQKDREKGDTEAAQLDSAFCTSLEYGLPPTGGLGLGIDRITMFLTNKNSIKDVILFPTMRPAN

## COc1cc(N2CCC(N3CCN(C)CC3)CC2)ccc1Nc1ncnc(Nc2ccccc2C2C=CCCC2)n1 (centres unmarked) [Compound 31]
PfLysRS [1]
  ΔTm of PfLysRS: 2.0 °C

## COc1cc(N2CCC(N3CCN(C)CC3)CC2)ccc1Nc1ncnc(Nc2ccccc2C2CCCCC2)n1 [Compound 32]
PfLysRS [1]
  ΔTm of PfLysRS: 4.1 °C

## COc1ccc(C(F)(F)F)cc1Nc1ncnc(Nc2ccccc2S(=O)(=O)C(C)C)n1 [Compound 33]
PfLysRS [1]
  ΔTm of PfLysRS: -0.1 °C

## COC(=O)c1ccc(OC)c(Nc2ncnc(Nc3ccccc3S(=O)(=O)C(C)C)n2)c1 [Compound 34]
PfLysRS [1]
  ΔTm at 200 µM: 7.9 °C
[2]; P. falciparum 3D7, Log(Concentration)/nM 2.290, single repeats
  % Inhibition: 1.182% and -0.03693% and -1.145%
[2]; P. falciparum 3D7, Log(Concentration)/nM 2.592, single repeats
  % Inhibition: 1.736% and -0.03693% and 4.616%
[2]; [4]
  % Inhibition: 62.22% and 58.01% and 53.91%
[2]; [5]
  % Inhibition: 92.69% and 87.92% and 85.93%
[2]; [6]
  % Inhibition: 98.34% and 94.68% and 94.24%
[2]; [7]
  % Inhibition: 98.78% and 97.23% and 96.34%
[2]; [8]
  % Inhibition: 101.2% and 100.6% and 98.23%
[2]; [9]
  % Inhibition: 99.67% and 99.22% and 96.9%
[2]; [10]
  % Inhibition: 94.68% and 96.01% and 94.24%
[2]
  HillSlope (best-fit value): 2.802
  LogIC50 (best-fit value): 3.133
  IC50: 1.36 µM
  EC50: 1.36 ± 0.04 µM

## COc1ccc(Nc2ncnc(Nc3ccccc3S(=O)(=O)C(C)C)n2)c(OC)c1 [Compound 35]
PfLysRS [1]
  ΔTm of PfLysRS: 6.4 °C

## COc1ccc(OC)c(Nc2ncnc(Nc3ccccc3S(=O)(=O)CCNC(=O)[C@@H](N)CCCCN)n2)c1 [Compound 36K2]
PfLysRS [1]; [11]
  Tm of PfLysRS, Average: 50.650
  Tm of PfLysRS, single repeat: 50.665 and 50.973 and 50.296
ALK; read-out: IC50 against ALK
  IC50: > 109 µM
PfLysRS [3]; read-out: IC50 against PfLysRS
  IC50: 0.365 µM
HsLysRS; read-out: IC50 against HsLysRS
  IC50: 31 µM

## COc1ccc(OC)c(Nc2ncnc(Nc3ccccc3S(=O)(=O)CCCCCNC(=O)[C@@H](N)CCCCN)n2)c1 [Compound 36K5]
PfLysRS [1]; +Lysine, sheet Figure 6B
  △Tm of PfLysRS: 10.740
PfLysRS [1]; [11]
  Tm of PfLysRS, Average: 55.760
  Tm of PfLysRS, single repeat: 55.867 and 55.929 and 55.806 and 55.437
ALK; read-out: IC50 against ALK
  IC50: > 66.8 µM
PfLysRS [3]; read-out: IC50 against PfLysRS
  IC50: 2.77 µM
HsLysRS; read-out: IC50 against HsLysRS
  IC50: 22 µM

## COc1cnc(OC)c(Nc2ncnc(Nc3ccccc3S(=O)(=O)C(C)C)n2)c1 [Compound 36a]
PfLysRS [1]
  ΔTm at 200 µM: 10.7 °C
HsLysRS; read-out: IC50 against HsLysRS
  IC50: 44 µM
[2]; P. falciparum 3D7, Log(Concentration)/nM 2.893, single repeats
  % Inhibition: 14.91%
[2]; [4]
  % Inhibition: 32.52% and 24.14%
[2]; [5]
  % Inhibition: 30.61% and 34.32%
[2]; [6]
  % Inhibition: 39.42% and 74.11%
[2]; [7]
  % Inhibition: 57.98% and 94.48%
[2]; [8]
  % Inhibition: 81.01% and 104.5%
[2]; [9]
  % Inhibition: 93% and 107%
[2]; [10]
  % Inhibition: 88.65% and 105.6%
[2]
  HillSlope (best-fit value): 1.181
  LogIC50 (best-fit value): 3.762
  IC50: 5.78 µM
  EC50: 5.78 ± 1.73 µM

## COc1ccc(OC)c(Nc2cccc(Nc3ccccc3S(=O)(=O)C(C)C)n2)c1 [Compound 36b]
PfLysRS [1]
  ΔTm of PfLysRS: 0.1 °C

## COc1ccc(OC)c(Nc2cncc(Nc3ccccc3S(=O)(=O)C(C)C)n2)c1 [Compound 36c]
PfLysRS [1]
  ΔTm of PfLysRS: 0 °C

## COc1ccc(OC)c(Nc2cccc(Nc3ccccc3S(=O)(=O)C(C)C)c2)c1 [Compound 36d]
PfLysRS [1]
  ΔTm of PfLysRS: −0.2 °C

## COc1ccc(OC)c(Nc2cc(Nc3ccccc3S(=O)(=O)C(C)C)ncn2)c1 [Compound 36e]
PfLysRS [1]
  ΔTm of PfLysRS: 3.1 °C

## COc1ccc(OC)c(Nc2nccc(Nc3ccccc3S(=O)(=O)C(C)C)n2)c1 [Compound 36f]
PfLysRS [1]
  ΔTm of PfLysRS: 2.4 °C

## CC(C)S(=O)(=O)c1ccccc1Nc1ncnc(Nc2ccccc2S(=O)(=O)C(C)C)n1 [Compound 37]
PfLysRS [1]
  ΔTm of PfLysRS: 0.5 °C

## COc1ncccc1Nc1ncnc(Nc2ccccc2S(=O)(=O)C(C)C)n1 [Compound 38a]
PfLysRS [1]; +Lysine
  Tm of PfLysRS, Average: 48.001 °C
  Tm of PfLysRS, single repeat: 48.109 °C and 48.140 °C and 47.986 °C and 47.770 °C
PfLysRS [1]
  ΔTm at 200 µM: 7.9 °C
ALK; ALK
  HillSlope (best-fit value): 0.6894
ALK; ALK, log of nM
  LogIC50 (best-fit value): 2.857
ALK; ALK, source data, read-out: IC50 (best-fit value)
  IC50: 0.719 µM
ALK; read-out: IC50 against ALK
  IC50: 0.719 ± 0.182 µM
PfLysRS [3]; PfLysRS
  HillSlope (best-fit value): 0.6952
PfLysRS [3]; PfLysRS, log of nM
  LogIC50 (best-fit value): 2.755
PfLysRS [3]; PfLysRS, source data, read-out: IC50 (best-fit value)
  IC50: 0.568 µM
PfLysRS [3]; read-out: IC50 against PfLysRS
  IC50: 0.568 µM
HsLysRS; HsLysRS
  HillSlope (best-fit value): 1.205
HsLysRS; HsLysRS, Log(Concentration)/nM 2.505, single repeats
  % Inhibition: 3.343% and 6.292% and 8.061%
HsLysRS; HsLysRS, Log(Concentration)/nM 3.204, single repeats
  % Inhibition: -0.8065% and 1.795% and 3.658%
HsLysRS; HsLysRS, Log(Concentration)/nM 3.903, single repeats
  % Inhibition: 7.774% and 9.643% and 10.78%
HsLysRS; HsLysRS, Log(Concentration)/nM 4.602, single repeats
  % Inhibition: 27.95% and 31.1% and 35.27%
HsLysRS; HsLysRS, Log(Concentration)/nM 5.301, single repeats
  % Inhibition: 65.61% and 74.02% and 86.84%
HsLysRS; HsLysRS, Log(Concentration)/nM 6.000, single repeats
  % Inhibition: 101.8% and 97.59% and 99.58%
HsLysRS; HsLysRS, log of nM
  LogIC50 (best-fit value): 4.923
HsLysRS; HsLysRS, source data, read-out: IC50 (best-fit value)
  IC50: 83.7 µM
HsLysRS; read-out: IC50 against HsLysRS
  IC50: 84 µM

## COc1cccnc1Nc1ncnc(Nc2ccccc2S(=O)(=O)C(C)C)n1 [Compound 38b]
PfLysRS [1]; +Lysine
  Tm of PfLysRS, Average: 42.100 °C
  Tm of PfLysRS, single repeat: 42.223 °C and 42.193 °C and 42.039 °C and 41.946 °C
PfLysRS [1]
  ΔTm at 200 µM: 2 °C

## COc1ccc(C)cc1Nc1ncnc(Nc2ccccc2S(=O)(=O)C(C)C)n1 [Compound 39]
PfLysRS [1]
  ΔTm of PfLysRS: 4.1 °C

## COc1ccc([N+](=O)[O-])cc1Nc1ncnc(Nc2ccccc2S(=O)(=O)C(C)C)n1 [Compound 40]
PfLysRS [1]
  ΔTm of PfLysRS: 2.5 °C

## COc1ccc(F)cc1Nc1ncnc(Nc2ccccc2S(=O)(=O)C(C)C)n1 [Compound 41]
PfLysRS [1]
  ΔTm of PfLysRS: 1.9 °C

## COc1ccc(OC(F)(F)F)cc1Nc1ncnc(Nc2ccccc2S(=O)(=O)C(C)C)n1 [Compound 42]
PfLysRS [1]
  ΔTm of PfLysRS: 1.5 °C
